The source made the active and inactive calls. No cut-off for these calls is given here.
Experiments:
[1] = target: Beta-1 adrenergic receptor (Cavia porcellus) (UniProt B0FL73)
Cavia porcellus = species on record: Cavia porcellus; assay: Selectivity ratio of ED50 for beta-2 adrenergic receptor in guinea pig trachea over ED50 for beta-1 adrenergic receptor in guinea pig atria
[2] = target: Beta-2 adrenergic receptor (Cavia porcellus) (UniProt Q8K4Z4); conditions: Trachea
[3] = target: Beta-1 adrenergic receptor (Cavia porcellus) (UniProt B0FL73); assay: Antagonist activity at beta-1 adrenergic receptor in guinea pig atria assessed as inhibition of isoproterenol-induced increase in rate of contraction of spontaneously beating right atria at 8.4 x 10^-5 M
[4] = target: Beta-2 adrenergic receptor (Cavia porcellus) (UniProt Q8K4Z4); assay: Agonist activity at beta-2 adrenergic receptor in guinea pig trachea assessed as relaxation of spontaneously contracted muscle at 4.8 x 10^-5 M; design: scale not given: the % may be the effect or the level left
[5] = target: Beta-1 adrenergic receptor (Cavia porcellus) (UniProt B0FL73); assay: Antagonist activity at beta-1 adrenergic receptor in guinea pig atria assessed as inhibition of isoproterenol-induced increase in rate of contraction of spontaneously beating right atria at 1 x 10^-3 M
[6] = target: Beta-1 adrenergic receptor (Cavia porcellus) (UniProt B0FL73); assay: Agonist activity at beta-1 adrenergic receptor in guinea pig atria assessed as increase in rate of contraction of spontaneously beating right atria at 4.8 x 10^-5 M
[7] = target: Beta-1 adrenergic receptor (Cavia porcellus) (UniProt B0FL73); assay: Antagonist activity at beta-1 adrenergic receptor in guinea pig atria assessed as inhibition of isoproterenol-induced increase in rate of contraction of spontaneously beating right atria at 3 x 10^-7 M
[8] = target: Beta-1 adrenergic receptor (Cavia porcellus) (UniProt B0FL73); assay: Agonist activity at beta-1 adrenergic receptor in guinea pig atria assessed as increase in rate of contraction of spontaneously beating right atria at 9 x 10^-5 M
[9] = target: Beta-2 adrenergic receptor (Cavia porcellus) (UniProt Q8K4Z4); assay: Intrinsic activity at beta-2 adrenergic receptor in guinea pig trachea assessed as relaxation of spontaneously contracted muscle relative to papaverine
[10] = system: Beta-2 adrenergic receptor (Cavia porcellus); assay: Ratio of isoproterenol ED50 to compound ED50 for beta-2 adrenergic receptor in guinea pig trachea assessed as relaxation of spontaneously contracted muscle
[11] = target: Beta-1 adrenergic receptor (Cavia porcellus) (UniProt B0FL73); assay: Ratio of isoproterenol ED50 to compound ED50 for beta-1 adrenergic receptor in guinea pig atria assessed as increase in rate of contraction of spontaneously beating right atria
[12] = target: Beta-1 adrenergic receptor (Cavia porcellus) (UniProt B0FL73); assay: Ratio of N-tert-butyl-norepinephrine ED50 to compound ED50 for beta-1 adrenergic receptor in guinea pig atria assessed as increase in rate of contraction of spontaneously beating right atria
Canis familiaris [13] = assay: Reduction of diastolic blood pressure in iv dosed anesthetized dog; assay type: functional, organism-based; conditions: Canis lupus familiaris; Artery
Canis familiaris [14] = assay: Reduction of heart rate in iv dosed anesthetized dog in presence of 2 mg/kg of propranolol, iv; assay type: functional, organism-based; design: dose 2 mg/kg; conditions: Canis lupus familiaris
Canis familiaris [15] = assay: Reduction of diastolic blood pressure in iv dosed anesthetized dog in presence of 2 mg/kg of propranolol, iv; assay type: functional, organism-based; design: dose 2 mg/kg; conditions: Canis lupus familiaris; Artery
[16] = target: Beta-1 adrenergic receptor (Cavia porcellus) (UniProt B0FL73); assay: Antagonist activity at beta-1 adrenergic receptor in guinea pig atria assessed as inhibition of isoproterenol-induced increase in rate of contraction of spontaneously beating right atria at 6.3 x 10^-5 M

Beta-1 adrenergic receptor (Cavia porcellus), sequence (B0FL73 1-467): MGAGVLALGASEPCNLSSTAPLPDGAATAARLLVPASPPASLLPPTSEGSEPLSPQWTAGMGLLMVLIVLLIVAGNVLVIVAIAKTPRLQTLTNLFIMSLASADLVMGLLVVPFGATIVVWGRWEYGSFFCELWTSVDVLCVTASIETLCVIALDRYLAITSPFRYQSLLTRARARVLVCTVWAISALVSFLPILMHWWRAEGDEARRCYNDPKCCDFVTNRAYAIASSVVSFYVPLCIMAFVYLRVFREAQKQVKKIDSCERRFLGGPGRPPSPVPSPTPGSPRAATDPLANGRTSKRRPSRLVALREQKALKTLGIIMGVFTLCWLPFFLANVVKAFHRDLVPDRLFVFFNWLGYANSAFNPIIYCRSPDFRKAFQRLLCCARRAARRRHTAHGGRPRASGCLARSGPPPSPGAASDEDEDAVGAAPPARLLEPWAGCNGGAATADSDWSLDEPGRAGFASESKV
Beta-2 adrenergic receptor (Cavia porcellus) (UniProt Q8K4Z4), sequence (Q8K4Z4 whole entry, looked up): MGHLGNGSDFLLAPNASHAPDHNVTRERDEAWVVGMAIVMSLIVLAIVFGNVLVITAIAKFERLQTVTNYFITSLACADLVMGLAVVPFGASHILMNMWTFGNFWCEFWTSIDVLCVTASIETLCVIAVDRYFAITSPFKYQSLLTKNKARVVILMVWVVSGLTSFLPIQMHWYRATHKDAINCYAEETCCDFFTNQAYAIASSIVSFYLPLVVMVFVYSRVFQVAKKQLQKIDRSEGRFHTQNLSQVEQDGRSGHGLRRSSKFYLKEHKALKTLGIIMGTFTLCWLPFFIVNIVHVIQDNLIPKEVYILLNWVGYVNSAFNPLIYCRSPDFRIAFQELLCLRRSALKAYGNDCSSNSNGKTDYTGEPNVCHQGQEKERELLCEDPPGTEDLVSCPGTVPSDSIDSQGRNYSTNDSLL

SMILES | ED25 [1] | Ratio ED50 (Cavia porcellus) | ED50 [2] | other results
CC(C)(C)NCC(O)COc1ccc(O)cc1 (centres undefined) | 5 ×10⁻⁸ M | 3.8 | 1.3 ×10⁻⁸ M | inhibition [3]: Active
CC(C)NCC(O)c1ccc(O)cc1 (centres undefined) | 7.7 ×10⁻⁸ M | 0.7 | 1.1 ×10⁻⁷ M | –
CC(C)NCC(O)c1ccc(O)c(O)c1 (centres undefined) | – | – | 7.1 nM | –
CC(C)(C)NC[C@H](O)c1ccc(O)c(O)c1 | 7.1 nM | 5.5 | 1.3 nM | –
CC(C)NCC(O)c1cccc(O)c1 (centres undefined) | 3.7 ×10⁻⁸ M | 0.8 | 4.5 ×10⁻⁸ M | –
CC(C)NCC(O)c1ccc(O)c(NS(C)(=O)=O)c1 (centres undefined) | 7.6 ×10⁻⁸ M | 2.9 | 2.6 ×10⁻⁸ M | –
CC(C)(C)NCC(O)COc1ccc(CS(C)(=O)=O)cc1 (centres undefined) | 4.8 ×10⁻⁵ M | – | 4.8 ×10⁻⁵ M | Activity [4]: 0%; inhibition [5]: 78%; Activity [6]: 0%
CC(C)(C)NCC(O)COc1ccc(O)c(NS(C)(=O)=O)c1 (centres undefined) | 1200 nM | 182 | 6.6 nM | inhibition [7]: 44%
CC(C)(C)NCC(O)COc1ccc(NS(C)(=O)=O)c(O)c1 (centres undefined) | 9 ×10⁻⁵ M | > 27 | 3400 nM | Activity [8]: 19%; Intrinsic activity [9]: 0.8
CC(C)(C)NCC(O)COc1ccc(O)c(O)c1 (centres undefined) | 1.1 ×10⁻¹¹ M | 0.034 | 3.2 ×10⁻¹⁰ M | Ratio ED50 [10]: 22; Ratio ED50 [11]: 310; Ratio ED50 [12]: 650; Activity (Canis familiaris [13]): Active; Activity (Canis familiaris [14]): inactive; Activity (Canis familiaris [15]): inactive
CC(C)(C)NCC(O)COc1cccc(O)c1 (centres undefined) | 5.4 ×10⁻⁷ M | 26 | 2.1 ×10⁻⁸ M | inhibition [16]: Active

Reference: ChEMBL document CHEMBL3244287, “Adrenergic agents. 4. Substituted phenoxypropanolamine derivatives as potential beta-adrenergic agonists” (J Med Chem, 1977)
